Laboratory results published in patent US9957546B2, “Vivo detection of phospholipase activation” (THE TRUSTEES OF THE UNIVERSITY OF PENNSYLVANIA, priority 2008, dated 2018).

Columns and labels:
[1] = In vivo distribution of Pyro-PL (Maestro spectral deconvolution, ex vivo IVIS organ imaging); set-up: species or system mice
Procedure: Methods for separation of probe fluorescence and autofluorescence have been developed that result in a more accurate detection of in vivo probe fluorescence. In FIG. 11, mice injected with the permanently fluorescent Pyro-PL are imaged with the CRI Maestro System, and the resulting images resolved into probe and autofluorescence on the basis of emission spectrum deconvolution. These images confirm that Pyro-PL localizes in the tumor within minutes, and persists for about 3 hours, consistent with FIGS. 12A and 13A. By 2 hours, the probe is also being removed from circulation, with concentration first in the liver, and then in the intestine for excretion in the stool.

[2] = Tolerability of Pyro-PL in mice; format: in vivo
[3] = Incorporation of Pyro-PL into PtdCho vesicles (self quenching/aggregation); format: physicochemical; conditions: 1 μM Pyro-PL, [PtdCho]>200 μM
Procedure: A measured amount of Pyro-PL-BHQ or Pyro-PL (ε=110,000 M^−1 cm^−1 at 410 nm) was combined with PtdCho (chicken egg, Avanti Polar Lipids, Inc., Alabaster, Ala.) in chloroform and dried under a stream of nitrogen.
In order to determine the mole fraction (MF) at which all fluorophore can be assumed to be completely incorporated and intercalated into the PtdCho vesicles, an experiment was conducted in which the concentration of PtdCho was varied while Pyro-PL concentration was held constant at 1 μM (FIG. 4A). The fluorescence intensity increases as the Pyro-PL disperses into the PtdCho vesicles. The fluorescence plateaus at the point at which aggregation is negligible.

PC-PLC [4] = biological target: PC-PLC (Bacillus cereus, UniProt P09598)
Chain of PC-PLC (Bacillus cereus, UniProt P09598) (P09598 39-283 limits assumed): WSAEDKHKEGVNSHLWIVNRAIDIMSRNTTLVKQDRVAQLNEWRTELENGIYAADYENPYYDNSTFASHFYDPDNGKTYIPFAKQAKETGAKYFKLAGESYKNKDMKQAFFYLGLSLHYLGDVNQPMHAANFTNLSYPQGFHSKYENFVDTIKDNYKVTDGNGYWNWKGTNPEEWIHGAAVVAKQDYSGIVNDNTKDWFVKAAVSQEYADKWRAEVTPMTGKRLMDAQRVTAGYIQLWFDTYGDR
Procedure: Phospholipase (0.5 to 5 units) are added to 1 μM fluorophore-BHQ in PtdCho vesicles_(MF=0.05) to yield a final volume of 100 μL. Initial velocities are measured as a function of enzyme concentration. For bulk kinetics, an enzyme concentration that gives a linear response is chosen. The lipid dispersions is diluted in buffer such that the fluorophore-BHQ concentration varies from 0.3-3 μM. The temperature is held at 37° C. and phospholipase added to a total volume of 100 μL. The released fluorescence is measured and the initial velocities recorded as a function of bulk lipid concentration. A Lineweaver-Burke plot of 1/V0 vs 1/[S] gives a straight line with […] and y intercept of 1/Vmax. For interfacial kinetics, lipid dispersions of fluorophore-BHQ and PtdCho are diluted in Triton X-100 with the total lipid concentration held at 20 μM. The ratios of fluorophore-BHQ to PtdCho are held constant, but varied relative to the MF of Triton with a total MF of fluorophore-BHQ of =0.01-0.05). Initial velocities are recorded as a function of concentration, and kinetic parameters are calculated.
Activity, in RFU/min/mg, was measured as a function of D609 concentration after the addition of 0.5 U PC-PLC (FIG. 2D).

PC-PLC [5] = conditions: Amplex Red, resorufin fluorescence
Source text: To validate the presence of PC-PLC activity in DU145 tumor xenografts, the Amplex Red PC-PLC assay kit (Molecular Probes) was used to measure PC-PLC activity in extracts of excised tumors.

[6] = Quenching of Pyro fluorescence (fluorescence emission spectra); format: physicochemical
Source text: In Pyro-PL-BHQ, BHQ acts as an effective quencher of Pyro fluorescence, reducing the fluorescence emission relative to Pyro-PL between 25-fold (for λex=675, λem=725 nm) and 45-fold (for λex=418, λem=695 nm) (FIG. 14).

DU145 prostate cells = experiment: Cell uptake and in situ activation, laser confocal microscopy; format: cell-based, human; conditions: 10 mM PB, 6 h

## C=Cc1c(C)c2cc3nc(c4c5[nH]c(cc6nc(cc1[nH]2)C(C)=C6CC)c(C)c5C(=O)C4)C(CCC(=O)OC(COC(=O)CCCCCCCCCCCCCCC)COP(=O)(O)OCCN)C3C (stereo not drawn) [Pyro-PL]
[1]; 2 h
  organ fluorescence at 2 h: majority of the fluorescence appears in the liver
[1]; IVIS, 24 h
  organ fluorescence ex vivo at 24 h: major fluorescence persisted in the liver, kidney and digestive tract
[1]; Maestro system
  time of accumulation in the tumor: ≤ 10 min
[2]
  tolerability: well tolerated by mice
[3]
  Pyro-PL mole fraction (MF) at which fluorescence plateaus (aggregation negligible): < 0.005

## S=C([S-])OC1CC2CC1C1CCCC21.[K+] (stereo not drawn) [D609]
PC-PLC [4]; 500 μM D609, 0.5 U PC-PLC
  Inhibition of PC-PLC hydrolysis of Pyro-PL-BHQ at 500 μM D609: Complete inhibition
PC-PLC [4]; FIG. 3A
  Fluorescence release from Pyro-PL-BHQ/PtdCho vesicles in presence of inhibitor: inhibited
PC-PLC [4]; read-out: IC50 of inhibition of PC-PLC activity toward Pyro-PL-BHQ, 1 μM Pyro-PL-BHQ, MF 0.003 in egg-PtdCho dispersions, 0.5 U PC-PLC
  IC50: 34 ± 8 µM
PC-PLC [4]; read-out: Ki (x-intercept of Km(app)/Vmax(app) vs. D609), Lineweaver-Burke plot of inhibition using 8, 50, 100 μM D609
  Ki: 250 µM
PC-PLC [5]
  PC-PLC activity in tumor extracts as a function of D609 concentration: decrease as a function of D609 concentration

## C=Cc1c(C)c2cc3nc(c4c5[nH]c(cc6nc(cc1[nH]2)C(C)=C6CC)c(C)c5C(=O)C4)C(CCC(=O)NCCCCCC(=O)OCC(COP(=O)([O-])OCC[N+](C)(C)C)OC(=O)CCCCCNC(=O)CCC1c2nc(cc4[nH]c(cc5nc(cc6[nH]c7c2CC(=O)c7c6C)C(CC)=C5C)c(C=C)c4C)C1C)C3C (stereo not drawn) [PyroPyro-PL]
[6]
  quenching efficiency (second Pyro as acceptor): ~4 fold

## phenylbutyrate [PB]
DU145 prostate cells
  effect on Pyro-PL-BHQ fluorescence in cells: fluorescence is increased
